Assays:
[1] = tested on: ACoAT promoter-β-galactosidase reporter gene in yeast strain MEY133::pACoAT (sterol biosynthesis); assay: Reporter gene (β-galactosidase) induction assay in reporter yeast strain; type: cell-based, S. cerevisiae; details: for concentration above which reporter gene activity is induced: 24 hours at 30° C.; for reporter gene induction per cell: relative to basal
Description: Reporter gene induction is defined as:
where f refers to a final reading, and i to an initial reading. 100 to a concentration of 100 μg/ml and 10 to a concentration of 10 ng/ml. Reporter gene induction per cell is defined as: […]
(§1) Reporter gene activity assays (β-galactosidase assays) were performed using a single step procedure with the substrate chlorophenol red-β-D-galactopyranoside (CPRG, Boehringer): this substrate gives rise to a red product when cleaved by β-galactosidase. The appearance of this product can assessed by monitoring the optical density at 570 nm (OD570). The assays were performed in the wells of microtitre plates containing 200 μi of yeast in uracil-deficient medium. 50 μl of reaction mix was added to these wells, and immediately after this the absorption at 570 nm was measured using a Molecular Devices plate reader. Reaction mix was prepared as follows. 10×Z buffer (Ausabel et al) was prepared by dissolving 85.2 g Na2HPO4, 62.4 g NaH2PO4.2H2O, 7.5 g KCl and 2.46 g MgSO4.7H2O in 500 mls water. 2.7 mls β-mercaptoethanol was added to this solution and mixed. The pH was adjusted to pH 7 using 5M NaOH and the volume made up to 1 litre with water. 200 mls of reaction buffer was made by mixing 100 mls 10×Z buffer, 1.0 ml of 20% (w/v) sodium docedyl sulphate, 10 mls 50 mM CPRG and 89 mls water. After 2 hours a final OD570 reading was taken. Over this time frame, using the yeast strains descibed below, the rate of change of OD570 was constant. Therefore OD570final minus OD570 initial is taken as a measure of total reporter gene activity. OD570 initial is taken as a measurement of the number of cells in the culture, and reporter gene activity per cell is calculated as […].
Maximal induction of reporter gene activity by terbinafine in MEY133::pACoAT was obtained by:
(1) thawing a 1 ml aliquot of frozen stock and adding it to 100 ml of uracil deficient medium in a 500 ml conical flask and incubating for 24 hours at 30° C. with agitation to aerate the culture.
(2) diluting a sample of this culture with uracil deficient medium to give 100 mls of a culture with an optical density at 600 nm of 1.0 units, and incubating this culture for a further 24 hours in an incubator at 30° C. with agitation.
(§2) (3) diluting a sample of this culture with uracil deficient medium to give a culture with an optical density at 600 nm of 0.35 units. This culture was dispensed into 96 well flat-bottomed mucrotitre plates containing compounds. Each well contained 20 μl compound dissolved in 10% (v/v) dimethylsulphoxide. 180 μl culture was added each well. The plates were sealed with Titertex plate sealers and incubated for 24 hours at 30° C.
(§3) (4) The plates were removed from the incubator, and shaken to resuspend the yeast. The platesealers were removed and […] reaction mix added to each well. An initial OD570 reading was taken immediately following this addition. After a further two hours a final OD570 reading was taken. Optical density readings were taken with a Molecular Devices platereader using Softmax software. The machine was set to automatically agitate the samples before taking the reading.
(§4) The reporter gene in the yeast strain MEY133::ACoAT is induced by a range of sterol biosynthesis inhibitor. FIGS. 2-10 present dose-responses to nine different sterol biosynthesis inhibitors. The measurements of reporter gene activity and growth were obtained using the standard procedure described above. Each point on the graph is the average of three measurements, standard deviations being indicated by the error bars. In the absence of sterol biosynthesis inhibitors, a basal activity of the reporter gene is observed. This corresponds to a change in OD570 of 0.23 units/two hours (average of 15 measurements). During the period of time of the incubation the yeast cells grow to a density of 0.86 OD570 units (average of 15 measurements).

[2] = tested on: yeast strain MEY133::pACoAT; assay: Growth of reporter yeast strain (OD570); type: cell-based, S. cerevisiae; details: OD570, 24 hours incubation
Description: Reporter gene activity (OD570final−OD570initial) is indicated by solid squares. Growth (OD570 final) is indicated by open squares. Each point is the average of three measurements. Error bars indicate standard deviations.
as §1, §2, §3, §4

[3] = tested on: ACoAT promoter-β-galactosidase reporter gene in yeast strain MEY133::pACoAT (sterol biosynthesis); assay: Reporter gene (β-galactosidase) induction assay in reporter yeast strain; type: cell-based, S. cerevisiae
Squalene synthase = details: S. cerevisiae, application of inhibitor; cited from earlier work
[4] = tested on: lanosterol 14-a-demethylase gene induction; details: HMG1-deleted yeast; cited from earlier work

SMILES	reporter gene activity response (in words) ([1]; MEY133::pACoAT)	concentration above which reporter gene activity is induced ([1]; MEY133::pACoAT, dose-response)	growth inhibition (in words) [2]	also measured
Nc1nc(=O)[nH]cc1F [5-flucytosine]	do not induce reporter gene activity			
CCC(C)(C)c1ccc(CC(C)CN2C[C@@H](C)O[C@@H](C)C2)cc1 (some centres unmarked) [Amorolfine]		above 1 μg/ml	some growth inhibitory properties	
C=C(CC[C@]12O[C@H](C(=O)O)[C@@](O)(C(=O)O)[C@](C(=O)O)(O1)[C@H](OC(=O)/C=C/[C@@H](C)C[C@@H](C)CC)[C@H]2O)[C@@H](OC(C)=O)[C@H](C)Cc1ccccc1 [Squalestatin]	biphasic response		growth inhibitory effect of squalestatin at higher concentrations	concentration of maximal reporter gene induction ([1]; MEY133::pACoAT, dose-response): 10 µg/mL; reporter gene activity per cell, comparison of concentrations ([3]; 10 μg/ml versus 100 μg/ml): almost identical
CN(Cc1ccc(C(C)(C)C)cc1)Cc1cccc2ccccc12 [4-t-butyl-N-methyl-N-(I-naphthylmethyl)benzylamine]				reporter gene induction compared with terbinafine ([1]; at 100 μg/ml): to the same extent as terbinafine; reporter gene induction compared with terbinafine ([3]; at 10 μg/ml): much less active than terbinafine
CCCCCCN1CCCC(Cc2ccc(C(C)(C)C)cc2)C1 (centres unmarked) [3-(4-t-butylbenzyl)-(N-hexyl)-piperidine]	very sharp	above 10 μg/ml		
CC[C@H](C)C(=O)O[C@H]1C[C@@H](C)C=C2C=C[C@H](C)[C@H](CC[C@@H]3C[C@@H](O)CC(=O)O3)[C@H]21 [Lovastatin]		above 1 μg/ml		reporter gene induction per cell [1]: 5 fold; increase of squalene synthase levels (Squalene synthase): 2-3 fold
CN(C/C=C/C#CC(C)(C)C)Cc1cccc2ccccc12 [Terbinafine]		above 1 μg/ml	inhibits growth to a limited extent	reporter gene induction per cell [1]: 9 fold
CC(Cc1ccc(C(C)(C)C)cc1)CN1C[C@@H](C)O[C@@H](C)C1 (some centres unmarked) [Fenpropimorph]	induces reporter gene activity		inhibiting growth to some extent	
OC(Cn1cncn1)(c1ccc(F)cc1)c1ccccc1F (centres unmarked) [Flutriafol]			Some growth inhibition	concentration at which detectable reporter gene induction occurs ([1]; MEY133::pACoAT, dose-response): 0.1 µg/mL
Cc1cccc(N(C)C(=S)Oc2ccc3ccccc3c2)c1 [tolnaftate]				detection in Kirsch screen [4]: not detected
C[C@@H]1[C@H](O)[C@@H](C)/C=C/C=C/C=C/C=C/C=C/C=C/C=C/[C@H](O[C@@H]2O[C@H](C)[C@@H](O)[C@H](N)[C@@H]2O)C[C@@H]2O[C@](O)(C[C@@H](O)C[C@@H](O)[C@H](O)CC[C@@H](O)C[C@@H](O)CC(=O)O[C@H]1C)C[C@H](O)[C@H]2C(=O)O [amphotericin B]	do not induce reporter gene activity			

From patent US6828092B1 (priority 1995, dated 2004)
